Legend:
[1] = molecular target: T1, bovine serum albumin (BSA) (Bos taurus, UniProt P02769); assay: uSTA saturation transfer NMR, Bloch-McConnell fit; format: binding
T1 construct: gene ALB; commercial native protein (Sigma Aldrich), non-modified

[2] = molecular target: T2, E. coli trehalose repressor TreR (Escherichia coli, UniProt P36673); assay: uSTA saturation transfer NMR; format: binding; conditions: weak ligand
T2 sequence (P36673 1-315): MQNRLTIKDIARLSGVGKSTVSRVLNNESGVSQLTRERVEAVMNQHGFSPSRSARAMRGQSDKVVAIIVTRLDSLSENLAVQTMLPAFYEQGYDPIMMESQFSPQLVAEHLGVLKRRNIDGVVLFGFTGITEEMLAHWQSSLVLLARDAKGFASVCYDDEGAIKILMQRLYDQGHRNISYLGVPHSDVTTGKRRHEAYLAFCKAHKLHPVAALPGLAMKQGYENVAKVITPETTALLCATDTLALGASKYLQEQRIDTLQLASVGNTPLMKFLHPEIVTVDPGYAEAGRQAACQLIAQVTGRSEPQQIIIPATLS

T1 sequence (P02769 25-607): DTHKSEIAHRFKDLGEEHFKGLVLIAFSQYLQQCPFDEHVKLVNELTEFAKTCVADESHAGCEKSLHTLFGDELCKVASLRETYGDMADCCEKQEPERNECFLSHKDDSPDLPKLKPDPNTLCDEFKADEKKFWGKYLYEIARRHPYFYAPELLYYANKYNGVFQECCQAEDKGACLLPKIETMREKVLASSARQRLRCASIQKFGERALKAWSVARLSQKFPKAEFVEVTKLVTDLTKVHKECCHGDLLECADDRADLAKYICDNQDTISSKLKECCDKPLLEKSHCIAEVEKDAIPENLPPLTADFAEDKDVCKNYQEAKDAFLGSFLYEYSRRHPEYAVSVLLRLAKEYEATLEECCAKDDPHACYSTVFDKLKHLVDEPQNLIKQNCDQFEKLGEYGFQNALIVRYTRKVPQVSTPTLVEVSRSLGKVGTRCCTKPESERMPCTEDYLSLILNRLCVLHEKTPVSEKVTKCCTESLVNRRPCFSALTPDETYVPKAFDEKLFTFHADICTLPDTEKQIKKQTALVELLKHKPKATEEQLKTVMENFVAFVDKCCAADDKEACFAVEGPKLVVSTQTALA

Kd [1] [µM]	Structure (SMILES)	transfer efficiency [2]
38 ± 15	N[C@@H](Cc1c[nH]c2ccccc12)C(=O)O [L-tryptophan]	
	OC[C@H]1O[C@H](O[C@H]2O[C@H](CO)[C@@H](O)[C@H](O)[C@H]2O)[C@H](O)[C@@H](O)[C@@H]1O [trehalose]	trehalose (Tre) binds only weakly to trehalose repressor protein TreR

Reference: article doi:10.1101/2021.04.14.439284v2 (biorxiv, 2021)
